The values that follow come from paper PMC5423977, “Safety, pharmacokinetics, and pharmacodynamics of BMS-986142, a novel reversible BTK inhibitor, in healthy participants” (European Journal of Clinical Pharmacology, 2017).

The structures appear in SMILES notation. Like-named read-outs stand apart in the source and are kept apart here.

Data set [1] concerns animal models of arthritis. Further details: method as in PMID 21752263, PMID 21521773. Particulars: cited from earlier work.
Data set [2] deals with rat adjuvant-induced arthritis model. Further details: method as in PMID 22228807. Particulars: alone or in combination with MTX; cited from earlier work.
Data set [3] in a line: Stability of methotrexate and 7-hydroxymethotrexate in human sodium heparin plasma and processed samples (bioanalytical validation). The class given is physicochemical. On the procedure:
Method validation was carried out according to the Bristol-Myers Squibb Standard Operating Procedures (SOPs) for chromatographic method validation which conforms to the U.S. FDA’s Good Laboratory Practice (GLP) regulations (21 CFR part 58). The validation experiments included but were not limited to the determination of the lower limit of quantification (LLOQ), specificity, accuracy and precision, recovery, and analyte stability under the expected conditions of sample transfer, sample storage, and sample preparation. The LLOQ of the assay was determined to be 1 ng/mL using six different lots of plasma. No interference from the endogenous components and the internal standard was observed.
The accuracy and precision data for BMS-986142, based on the maximum value from all six QC levels, obtained using one-way ANOVA in Watson are listed in Table 1. The recovery of the analyte from human plasma during extraction was determined at 3 ng/mL and 800 ng/mL for BMS-986142, at 3 ng/mL, 30 ng/mL and 750 ng/mL for methotrexate and 7-hydroxymethotrexate, by comparing the response ratios in human plasma samples spiked with the analyte prior to extraction with those spiked post-extraction. The recovery for BMS-986142 is 89-90%. The recoveries for methotrexate and 7-hydroxymethotrexate are 88-94% and 83-88%, respectively. The room temperature, freeze-thaw, and frozen storage stability of BMS-986142 were evaluated in triplicate or quadruplicate using Low QC, High QC, and Dilution QC. The reinjection integrity was assessed by re-injecting an entire run. The deviations of the mean predicted concentrations of the test samples from the nominal concentrations were used as an indicator of the stability of the analyte.

A short description of data set [4]: Safety (adverse events), Study 2 MTX-DDI in healthy male participants.
Protocol: This portion of the study was designed to assess the effect of BMS-986142 on the PK of MTX since MTX is used as a background therapy in RA patients and all patients will receive MTX when the phase 2 study of BMS-986142 is conducted. Eligible participants were confined to the clinical facility for the duration of treatment (15 days). Healthy participants were administered a single oral dose of 7.5 mg MTX on day 1. On day 2, participants received leucovorin (a single oral dose of 15 mg) as a preventive measure for MTX toxicity. After a washout period (days 2–5), BMS-986142 was administered on days 6–10 in 350-mg QD doses. A concomitant dose of MTX (7.5 mg) was administered on day 8, followed by leucovorin (15 mg) on day 9 (Online Resource 2). BMS-986142 was administered with 240 mL of water, and a minimum amount of additional water was permitted to allow dosing of all medications. Only healthy male participants (ages ≥18 to ≤50 years) were eligible for the MTX-DDI assessment in study 2. Other key inclusion and exclusion criteria were identical to those in study 1.
Participants were monitored for adverse events (AEs) throughout the study. Clinical laboratory tests, vital sign measurements, 12-lead ECGs, and physical examinations were performed at selected times throughout the dosing interval. Safety data was recorded in the participants’ medical records, and assessments were performed for emergent AEs or serious AEs (SAEs). For all AEs, causal relationship to the study drug was determined by an investigator.
The nature of data set [5]: Effect of BMS-986142 on single-dose plasma PK of MTX (DDI). The class given is in vivo, human. Particulars: for AUC(0-inf): read-out: AUC(inf), geometric mean (adjusted); for Cmax: read-out: Cmax, geometric mean (adjusted). As to the method: Blood samples for the measurement of BMS-986142 were collected up to 168 h after dosing of BMS-986142 on day 1 for participants in SAD. In MAD, blood samples were collected up to 24 h on day 1 and up to 120 h on day 14 (the last day of treatment). Blood samples for the measurement of MTX were collected up to 48 h after dosing of MTX on days 1 and 8.
Plasma samples were analyzed for BMS-986142 levels with a validated method using liquid chromatography tandem mass spectrometry (LC-MS/MS) detection. The analyte was extracted from 50 μL of plasma using a liquid–liquid extraction method. Methyl tert-butyl ether was used as the extraction solvent. The lower limit of quantification (LLOQ) was 1.00 ng/mL in plasma. Plasma samples were analyzed for methotrexate levels using LC-MS/MS detection. Analytes were isolated from 50 μL plasma through solid phase extraction using Waters Oasis MAX, 10-mg, 96-well SPE plates. The final extract was analyzed using LC-MS/MS detection. LLOQ was 1.00 ng/mL in plasma. Detailed methodology quantitating the concentration level of BMS-986142 and MTX is provided in Online Resource 10.
Individual subject pharmacokinetic parameters for BMS-986142 and MTX were derived by a non-compartmental method using validated PK software (WinNonLin version 6.3; Pharsight Corporation, Mountain View, CA, USA). The following PK parameters for BMS-986142 and MTX were derived from plasma concentration versus time data: maximum observed plasma concentration (Cmax); minimum observed plasma concentration (Cmin); time to maximum observed plasma concentration (Tmax); area under the plasma concentration-time curve from time zero to the time of the last quantifiable concentration (AUC(0-T)), from time zero extrapolated to infinite time (AUC(inf)), and in one dosing interval (AUC(TAU)); terminal plasma half-life (T1/2); and AUC accumulation index (AI_AUC). AI_AUC was calculated to divide AUC(TAU) on day 14 by AUC(TAU) on day 1.
Statistical analyses were conducted to assess the effect of coadministration of BMS-986142 on the PK of MTX. For all treatment comparisons, a linear mixed-effect model was fitted to the log-transformed PK parameters Cmax, AUC(0-T), and AUC(inf). Point estimates and 90% CIs for differences on the log-scale were exponentiated to obtain estimates for geometric mean ratios (GMRs) and respective 90% CIs on the original scale. Sample size determination is based on consideration of the precision of the estimate of the GMRs of AUCs of MTX with and without BMS-986142. With 9 evaluable subjects, there will be an 80% probability that the 90% CI of AUC(INF) GMR will be within 89.9 to 111.2% of the point estimate. These precision estimates are based on an assumption that Cmax and AUC(INF) of MTX are log-normally distributed with intrasubject CV of 14.67 and 10.38%, respectively, as calculated from Namour et al..

Where [6] appears, read: methotrexate, 24 hours at RT in Plasma, High QC 750.
Where [7] appears, read: methotrexate, 24 hours at RT in Plasma, Low QC 3.00.
[8] abbreviates: methotrexate, 142 h Processed sample stability, High QC 750.
Where [9] appears, read: methotrexate, 142 h Processed sample stability, Low QC 3.00.
Setting [10] is: methotrexate, 6 days at 5 °C Re-injection integrity, High QC 750.
The mark [11] stands for this setting: methotrexate, 6 days at 5 °C Re-injection integrity, Low QC 3.00.
The mark [12] stands for this setting: methotrexate, 449 day at -20 °C in Plasma, High QC 750.
Setting [13] is: methotrexate, 449 day at -20 °C in Plasma, Low QC 3.00.
The mark [14] stands for this setting: methotrexate, After 4 Freeze-Thaw Cycle in Plasma, High QC 750.
Where [15] appears, read: methotrexate, After 4 Freeze-Thaw Cycle in Plasma, Low QC 3.00.
[16] abbreviates: MTX 7.5 mg (Day 1) + leucovorin 15 mg (Day 2), n = 12.
Where [17] appears, read: male, human, plasma, oral, Treatment D: single-dose methotrexate 7.5 mg (day 1) + leucovorin 15 mg (day 2).
The mark [18] stands for this setting: male, human, plasma, oral, Treatment F: BMS-986142 350 mg QD + single-dose methotrexate 7.5 mg (day 8) + leucovorin 15 mg (day 9).
The mark [19] stands for this setting: methotrexate with BMS-986142 350 mg QD vs methotrexate alone.
[20] abbreviates: 7-hydroxymethotrexate, 24 hours at RT in Plasma, High QC 750.
[21] abbreviates: 7-hydroxymethotrexate, 24 hours at RT in Plasma, Low QC 3.00.
The mark [22] stands for this setting: 7-hydroxymethotrexate, 142 h Processed sample stability, High QC 750.
Where [23] appears, read: 7-hydroxymethotrexate, 142 h Processed sample stability, Low QC 3.00.
[24] abbreviates: 7-hydroxymethotrexate, 6 days at 5 °C Re-injection integrity, High QC 750.
[25] abbreviates: 7-hydroxymethotrexate, 6 days at 5 °C Re-injection integrity, Low QC 3.00.
[26] abbreviates: 7-hydroxymethotrexate, 449 day at -20 °C in Plasma, High QC 750.
Setting [27] is: 7-hydroxymethotrexate, 449 day at -20 °C in Plasma, Low QC 3.00.
Where [28] appears, read: 7-hydroxymethotrexate, After 4 Freeze-Thaw Cycle in Plasma, High QC 750.
Where [29] appears, read: 7-hydroxymethotrexate, After 4 Freeze-Thaw Cycle in Plasma, Low QC 3.00.

On to `C=CC(=O)N1CCC[C@@H](n2nc(-c3ccc(Oc4ccccc4)cc3)c3c(N)ncnc32)C1` [PCI-32765], for which the “Efficacy in animal models of arthritis” value in data set [1] is reported as “Dose-dependent efficacy”.

For the molecule `CN1CCN(c2ccc(Nc3cc(-c4cccc(-n5ccc6cc(C7CC7)cc(F)c6c5=O)c4CO)cn(C)c3=O)nc2)CC1` [RN486], the “Efficacy on joint and systemic inflammation” value in data set [2] was “efficacious in reducing joint and systemic inflammation”.

Consider `CN(Cc1cnc2nc(N)nc(N)c2n1)c1ccc(C(=O)N[C@@H](CCC(=O)O)C(=O)O)cc1` [methotrexate, reference compound], for which, in data set [3] (setting [6]), the “Stability, %Dev” value was 0.2% and the “Stability, Mean Conc.” value worked out at 751 ng/mL. Also, in data set [3] (setting [7]), the “Stability, %Dev” value is on record as -0.1% and the “Stability, Mean Conc.” value was found to be 3.00 ng/mL. Further, in data set [3] (setting [8]), the “Stability, %Dev” value is -13.1% and the “Stability, Mean Conc.” value was 652 ng/mL. For the same molecule, in data set [3] (setting [9]), the “Stability, %Dev” value is recorded as -9.2% and the “Stability, Mean Conc.” value stood at 2.72 ng/mL. Also, in data set [3] (setting [10]), the “Stability, %Dev” value is recorded as -2.2% and the “Stability, Mean Conc.” value was 734 ng/mL. In addition, in data set [3] (setting [11]), the “Stability, %Dev” value was found to be 3.4% and the “Stability, Mean Conc.” value was determined as 3.10 ng/mL. Further, in data set [3] (setting [12]), the “Stability, %Dev” value came out at 0.6% and the “Stability, Mean Conc.” value was 755 ng/mL. Besides, in data set [3] (setting [13]), the “Stability, %Dev” value is -9.9% and the “Stability, Mean Conc.” value amounted to 2.70 ng/mL. For the same molecule, in data set [3] (setting [14]), the “Stability, %Dev” value is given as -2.1% and the “Stability, Mean Conc.” value is reported as 734 ng/mL. In data set [3] (setting [15]), the “Stability, %Dev” value was 3.7% and the “Stability, Mean Conc.” value stood at 3.11 ng/mL. Besides, in data set [4] (setting [16]), the “AE SOC: Gastrointestinal Disorders” value is reported as 0 n (%); the “AE SOC: General disorders and administration site conditions” value is reported as 1 (8.3) n (%); the “AE SOC: Infections and infestations” value is 0 n (%); the “AE SOC: Injury, poisoning and procedural complications” value is on record as 0 n (%). In data set [4] (setting [16]), the “AE SOC: Nervous system disorders” value is on record as 1 (8.3) n (%), the “AE SOC: Psychiatric disorders” value is reported as 0 n (%), the “AE: Anxiety” value is listed as 0 n (%) and the “AE: Arthropod Bite” value was 0 n (%). Moreover, in data set [4] (setting [16]), the “AE: Asthenia” value is 1 (8.3) n (%), the “AE: Dizziness” value is 1 (8.3) n (%), the “AE: Fatigue” value is given as 0 n (%) and the “AE: Headache” value is reported as 0 n (%). Besides, in data set [4] (setting [16]), the “AE: Nausea” value was 0 n (%), the “AE: Sleep Disorder” value is reported as 0 n (%), the “AE: Tremor” value is 1 (8.3) n (%) and the “Total participants with an event” value is given as 1 (8.3) n (%). For the same molecule, in data set [4] (Study 2, single-dose MTX on day 1), the “Number of AEs reported” value is “Three”. Moreover, the “AUC(0-T), geometric mean (adjusted)” value in data set [5] (Treatment D: single-dose methotrexate 7.5 mg (day 1) + leucovorin 15 mg (day 2)) was found to be 613 ng·h/mL. For the same molecule, in data set [5] (setting [17]), the AUC(0-inf) is 625 ng·h/mL and the Cmax worked out at 178 ng/mL. Besides, the AUC(0-t) in data set [5] (male, human, plasma, oral, Treatment F: BMS-986142 350 mg QD + single-dose methotrexate 7.5 mg (day 8) + leucovorin 15 mg (day 9), read-out: AUC(0-T), geometric mean (adjusted)) is 638 ng·h/mL. Further, in data set [5] (setting [18]), the AUC(0-inf) amounted to 654 ng·h/mL and the Cmax came out at 186 ng/mL. Further, in data set [5] (setting [19]), the “AUC(0-T), adjusted geometric mean ratio F vs D” value worked out at 1.041; the “AUC(inf), adjusted geometric mean ratio F vs D” value was 1.045; the “Cmax, adjusted geometric mean ratio F vs D” value is reported as 1.046.

Take `Cc1c(NC(=O)c2cc3c(s2)CCCC3)cccc1-c1cn(C)c(=O)c(Nc2ccc([C@@H]3C(=O)N(C)CCN3C)cc2)n1` [GDC-0834]: the “Efficacy in animal models of arthritis” value in data set [1] was “Dose-dependent efficacy”.

As for `CN(Cc1nc2c(N)nc(N)nc2[nH]c1=O)c1ccc(C(=O)N[C@@H](CCC(=O)O)C(=O)O)cc1` [7-hydroxymethotrexate], the “Stability, %Dev” value in data set [3] (setting [20]) is on record as -0.3%; in data set [3] (setting [21]), 9.2%; in data set [3] (setting [22]), -8.1%; in data set [3] (setting [23]) it was -8.7%; in data set [3] (setting [24]), 0.4%; in data set [3] (setting [25]), 5.7%. Also, the “Stability, %Dev” value is -0.3% in data set [3] (setting [26]), -10.4% in data set [3] (setting [27]), 0.2% in data set [3] (setting [28]) and 1.4% in data set [3] (setting [29]). Besides, the “Stability, Mean Conc.” value was 747 ng/mL in data set [3] (setting [20]); 3.28 ng/mL in data set [3] (setting [21]); 689 ng/mL in data set [3] (setting [22]); 2.74 ng/mL in data set [3] (setting [23]); 753 ng/mL in data set [3] (setting [24]); 3.17 ng/mL in data set [3] (setting [25]). The “Stability, Mean Conc.” value in data set [3] (setting [26]) turned out to be 747 ng/mL; in data set [3] (setting [27]), 2.69 ng/mL; in data set [3] (setting [28]), 751 ng/mL; in data set [3] (setting [29]) it was 3.04 ng/mL.
